In US8912150B2, “Ribosome structure and protein synthesis inhibitors” (Rib-X Pharmaceuticals, Inc., priority 2001, dated 2014):

Assays:
[1] = test system: E. coli S30 extract; type: biochemical
[2] = target: rabbit reticulocyte lysate; assay: Translation inhibition in rabbit reticulocyte lysate system (luciferase mRNA); type: biochemical
[3] = test system: ribosome peptidyl transferase; conditions: cited from earlier work
[4] = test system: ribosomes; conditions: macrolide-poisoned ribosomes; cited from earlier work
[5] = test system: ribosomes; conditions: S. pneumoniae; cited from earlier work

COc1ccc(C[C@H]2NC[C@H](O)[C@H]2OC(C)=O)cc1 [anisomycin]
IC50 [1]: > 100 µM
IC50 [2]: 0.19 µM

CCdA-phosphate-puromycin [CCdA-p-Puro]
binding to the ribosome [3]: binds tightly to the ribosome
inhibition of peptidyl transferase activity [3]: inhibits its peptidyl transferase activity

CC[C@H]1OC(=O)[C@H](C)[C@@H](O[C@H]2C[C@@](C)(OC)[C@@H](O)[C@H](C)O2)[C@H](C)[C@@H](O[C@@H]2O[C@H](C)C[C@H](N(C)C)[C@H]2O)[C@](C)(O)C[C@@H](C)C(=O)[C@H](C)[C@@H](O)[C@]1(C)O [erythromycin]
length of oligopeptides synthesized in presence of macrolide [4]: permit the formation of tetrapeptides

CO[C@@H]1[C@@H](O[C@@H]2O[C@H](C)[C@@H](O[C@H]3C[C@@](C)(O)[C@@H](OC(=O)CC(C)C)[C@H](C)O3)[C@H](N(C)C)[C@H]2O)[C@@H](CC=O)C[C@@H](C)C(=O)/C=C/[C@@H]2O[C@H]2C[C@@H](C)OC(=O)C[C@H]1OC(C)=O [carbomycin A]
length of oligopeptides synthesized in presence of macrolide [4]: strongly inhibits the formation of even the first peptide bond

O=C(N[C@H](CO)[C@H](O)c1ccc([N+](=O)[O-])cc1)C(Cl)Cl [chloramphenicol]
IC50 [1]: 12.3 µM
IC50 [2]: > 100 µM

spiramycin
length of oligopeptides synthesized in presence of macrolide [4]: allow formation of only dipeptides

CC[C@H]1OC(=O)[C@H](C)C(=O)[C@H](C)[C@@H](O[C@@H]2O[C@H](C)C[C@H](N(C)C)[C@H]2O)[C@](C)(OCC=Cc2cnc3ccccc3c2)C[C@@H](C)C(=O)[C@H](C)[C@H]2NC(=O)O[C@@]21C [ABT-773]
ribosome binding relative to erythromycin [5]: binds ribosomes tighter than erythromycin

CC[C@H]1OC(=O)C[C@@H](O)[C@H](C)[C@@H](O[C@@H]2O[C@H](C)[C@@H](O[C@H]3C[C@@](C)(O)[C@@H](O)[C@H](C)O3)[C@H](N(C)C)[C@H]2O)[C@@H](CC=O)C[C@@H](C)C(=O)/C=C/C(C)=C/[C@@H]1CO[C@@H]1O[C@H](C)[C@@H](O)[C@@H](OC)[C@H]1OC [tylosin]
length of oligopeptides synthesized in presence of macrolide [4]: allow formation of only dipeptides
